In article PMC9598656, “In Vitro Activity of Robenidine Analogues NCL259 and NCL265 against Gram-Negative Pathogens” (Antibiotics, 2022):

Columns and labels:
P. aeruginosa ATCC 27853 [1] = assay: MIC, broth micro-dilution; type: cell-based, Pseudomonas aeruginosa
Method: (§1) A variety of Gram-negative reference strains (E. coli ATCC 25922, E. coli ATCC 10763, P. aeruginosa PAO1, P. aeruginosa ATCC 27853, A. baumannii ATCC 12457, A. baumannii ATCC 19606, K. pneumoniae ATCC 4352 and K. pneumoniae ATCC 33495) were used for initial screening and combination testing with PMB. The organisms were speciated using biochemical testing and MALDI-TOF mass spectrometry (Bruker, Preston, VIC, Australia). Activity testing of NCL259 and NCL265 was also carried out on 51 extraintestinal clinical E. coli isolates from companion animals, and 83 porcine and bovine enterotoxigenic E. coli (ETEC) isolates from the Australian Centre for Antimicrobial Resistance Ecology collection. E. coli wild-type (BW 25113) and its mutant BW 25113∆AcrB, in which the inner membrane component AcrB of the tripartite multidrug efflux system AcrA/AcrB/TolC has been deleted, were obtained from the bacterial collection held at Health and Biomedical Innovation, Clinical and Health Sciences, The University of South Australia. All isolates were cultured on sheep blood agar (SBA) plates at 37 °C for 18 h before being subcultured into Luria Bertaini (LB) (Oxoid, Scoresby, VIC, Australia) broth and grown to A600nm = 0.5 (equivalent to approx. 1.5 × 10^8 colony-forming units (CFU)/mL).
(§2) MICs for NCL259 and NCL265 (serial two-fold dilutions commencing at 256 µg/mL) were determined (in duplicate) in round bottom 96–well microtitre trays (Sarstedt 82.1582.001), using the broth micro-dilution method recommended by the Clinical and Laboratory Standards Institute (CLSI). We have shown previously that robenidine can chelate calcium ions from cation-adjusted Mueller-Hinton broth, which causes the loss of activity of robenidine. Therefore, LB broth was used in this study. Additionally, considering the low solubility of robenidine and its analogues in aqueous solutions, two-fold serial dilutions of stock solutions of these compounds were prepared in 100% DMSO [21]. The MIC for ampicillin against each isolate was determined for each test to serve as an internal quality control. The MICs of isolates were determined by visual reading and using an EnSpire Multimode Plate Reader 2300 at A600nm.

P. aeruginosa PAO1 [2] = assay: MIC, broth micro-dilution; type: cell-based, Pseudomonas aeruginosa
Method: as §1, §2

A. baumannii ATCC 19606 [3] = assay: MIC, broth micro-dilution; type: cell-based, Acinetobacter baumannii
Method: as §1, §2

A. baumannii ATCC 12457 [4] = assay: MIC, broth micro-dilution; type: cell-based, Acinetobacter baumannii
Method: as §1, §2

P. aeruginosa ATCC 27853 [5] = assay: Checkerboard assay with PMB; type: cell-based, Pseudomonas aeruginosa
Method: (§3) MICs of NCL259 or NCL265 in the presence of the efflux pump inhibitor, PAβN were determined using a checkerboard assay. […] Briefly, a two-fold serial dilution of each antimicrobial solution was prepared in its appropriate solvent (e.g., DMSO for robenidine analogues and Milli-Q water for PAβN), and 1 μL of each dilution was added from wells 12 to 3 (12.8–0.25 μg/mL for robenidine analogues, and 32–2 μg/mL for PAβN). Thereafter, 89 μL of LB broth was added to each well followed by the addition of 10 μL of bacterial suspension (1–5 × 10^6 CFU/mL) to each well. In this manner, the final concentration of DMSO in each well was 1%. The plate was subsequently incubated at 37 °C for 24 h. The resazurin assay was used for assessment of drug susceptibility of NCL259 and NCL265 (Supplementary Table S1–S6). The same method was also used to test the MICs of NCL259 or NCL265 in the presence of PMB against a range of Gram-negative reference strains (E. coli ATCC 25922, E. coli ATCC 10763, P. aeruginosa PAO1, P. aeruginosa ATCC 27853, A. baumannii ATCC 12457, A. baumannii ATCC 19606, K. pneumoniae ATCC 4352 and K. pneumoniae ATCC 33495). Stock solutions were prepared prior to use (25.6–0.25 mg/mL for robenidine analogues; 12.8–0.25 mg/mL for PMB). The interaction of two antibiotics was calculated as the fractional inhibitory concentration index (FICI) using the following formula:(1) FICI=MICA in combination/MICA alone+MICB in combination/MICB alone where A is NCL259 or NCL265 and B is PAβN or PMB. According to FICI calculations, the interaction between two compounds were interpreted as follows: synergistic (FICI ≤ 0.5); additive or partially synergistic (0.5 < FICI ≤ 1); indifferent (1 < FICI ≤ 4); and antagonistic (FICI > 4), as described previously. The dose reduction index (DRI) was used to describe the difference between the effective doses of NCL259 or NCL265 in combination with PMB or PAβN in comparison to their individual doses, using the following formula:(2) DRI=MICA alone/MICA in combination
(§4) Evaluation of DRI is important clinically because it can allow the dose of a potentially toxic drug to be lowered in combination with another compound without reducing the drug’s efficacy. A DRI higher than 1 is viewed as beneficial.

P. aeruginosa PAO1 [6] = assay: Checkerboard assay with PMB; type: cell-based, Pseudomonas aeruginosa
Method: as §3, §4

K. pneumoniae ATCC 4352 [7] = assay: MIC, broth micro-dilution; type: cell-based, Klebsiella pneumoniae
Method: as §1, §2

K. pneumoniae ATCC 33495 [8] = assay: MIC, broth micro-dilution; type: cell-based, Klebsiella pneumoniae; conditions: K. pneumoniae ATCC 33495
Method: as §1, §2

A. baumannii ATCC 19606 [9] = assay: Checkerboard assay with PMB; type: cell-based, Acinetobacter baumannii
Method: as §3, §4

A. baumannii ATCC 12457 [10] = assay: Checkerboard assay with PMB; type: cell-based, Acinetobacter baumannii
Method: as §3, §4

K. pneumoniae ATCC 4352 [11] = assay: Checkerboard assay with PMB; type: cell-based, Klebsiella pneumoniae
Method: as §3, §4

K. pneumoniae ATCC 33495 [12] = assay: Checkerboard assay with PMB; type: cell-based, Klebsiella pneumoniae
Method: as §3, §4

E. coli ATCC 25922 [13] = assay: MIC, broth micro-dilution; type: cell-based, Escherichia coli
Method: as §1, §2

E. coli ATCC 10763 [14] = assay: MIC, broth micro-dilution; type: cell-based, Escherichia coli; conditions: E. coli ATCC 10763
Method: as §1, §2

E. coli ATCC 25922 [15] = assay: Checkerboard assay with PMB; type: cell-based, Escherichia coli
Method: as §3, §4

E. coli ATCC 10763 [16] = assay: Checkerboard assay with PMB; type: cell-based, Escherichia coli
Method: as §3, §4

polymyxin B [PMB, reference compound]
MIC, Single Drug (P. aeruginosa ATCC 27853 [1]): 1 µg/mL | MIC, Single Drug (P. aeruginosa PAO1 [2]): 1 µg/mL | MIC, Single Drug (A. baumannii ATCC 19606 [3]): 1 µg/mL | MIC, Single Drug (A. baumannii ATCC 12457 [4]): 1 µg/mL | MIC, Combination (P. aeruginosa ATCC 27853 [5]; NCL259 or NCL265 with PMB): 0.5 µg/mL | Dose Reduction Index (DRI) PMB:NCL259 (P. aeruginosa ATCC 27853 [5]; PMB + NCL259): 2 | Dose Reduction Index (DRI) PMB:NCL265 (P. aeruginosa ATCC 27853 [5]; PMB + NCL265): 2 | MIC, Combination (P. aeruginosa PAO1 [6]; NCL259 or NCL265 with PMB): 0.5 µg/mL | Dose Reduction Index (DRI) PMB:NCL259 (P. aeruginosa PAO1 [6]; PMB + NCL259): 2 | Dose Reduction Index (DRI) PMB:NCL265 (P. aeruginosa PAO1 [6]; PMB + NCL265): 2 | MIC, Single Drug (K. pneumoniae ATCC 4352 [7]): 1 µg/mL | MIC, Single Drug (K. pneumoniae ATCC 33495 [8]): 1 µg/mL | MIC, Combination (A. baumannii ATCC 19606 [9]; NCL259 or NCL265 with PMB): 0.5 µg/mL | Dose Reduction Index (DRI) PMB:NCL259 (A. baumannii ATCC 19606 [9]; PMB + NCL259): 2 | Dose Reduction Index (DRI) PMB:NCL265 (A. baumannii ATCC 19606 [9]; PMB + NCL265): 2 | MIC, Combination (A. baumannii ATCC 12457 [10]; NCL259 or NCL265 with PMB): 0.5 µg/mL | Dose Reduction Index (DRI) PMB:NCL259 (A. baumannii ATCC 12457 [10]; PMB + NCL259): 2 | Dose Reduction Index (DRI) PMB:NCL265 (A. baumannii ATCC 12457 [10]; PMB + NCL265): 2 | MIC, Combination (K. pneumoniae ATCC 4352 [11]; NCL259 or NCL265 with PMB): 0.25 µg/mL | Dose Reduction Index (DRI) PMB:NCL259 (K. pneumoniae ATCC 4352 [11]; PMB + NCL259): 4 | Dose Reduction Index (DRI) PMB:NCL265 (K. pneumoniae ATCC 4352 [11]; PMB + NCL265): 4:4 | Dose Reduction Index (DRI) PMB:NCL259 (K. pneumoniae ATCC 33495 [12]; PMB + NCL259): 2 | Dose Reduction Index (DRI) PMB:NCL265 (K. pneumoniae ATCC 33495 [12]; PMB + NCL265): 4 | MIC, Single Drug (E. coli ATCC 25922 [13]): 0.5 µg/mL | MIC, Single Drug (E. coli ATCC 10763 [14]): 1 µg/mL | MIC, Combination (E. coli ATCC 25922 [15]; NCL259 or NCL265 with PMB): 0.25 µg/mL | Dose Reduction Index (DRI) PMB:NCL259 (E. coli ATCC 25922 [15]; PMB + NCL259): 2 | Dose Reduction Index (DRI) PMB:NCL265 (E. coli ATCC 25922 [15]; PMB + NCL265): 2 | Dose Reduction Index (DRI) PMB:NCL259 (E. coli ATCC 10763 [16]; PMB + NCL259): 2 | Dose Reduction Index (DRI) PMB:NCL265 (E. coli ATCC 10763 [16]; PMB + NCL265): 4
